Laboratory results: patent US12077503B2, “Substituted cyclic amides and their use as herbicides” (FMC CORPORATION, priority 2015, dated 2024)

Columns and labels:
Format in all cases: in vivo
[1] = tested on: Galium (catchweed bedstraw, Galium aparine); experiment: Test A postemergence
Text: (§1) Seeds of plant species selected from barnyardgrass (Echinochloa crus-galli), Kochia (Kochia scoparia), ragweed (common ragweed, Ambrosia elatior), ryegrass, Italian (Italian ryegrass, Lolium multiflorum), crabgrass, large (Digitaria sanguinalis), giant foxtail (Setaria faberii), green foxtail (Setaria viridis), morningglory (Ipomoea spp.), pigweed (Amaranthus retroflexus), velvetleaf (Abutilon theophrasti), wheat (Triticum aestivum), and corn (Zea mays) were planted into a blend of loam soil and sand and treated preemergence with a directed soil spray using test chemicals formulated in anon-phytotoxic solvent mixture which included a surfactant.
(§2) At the same time, plants selected from these crop and weed species and also blackgrass (Alopecurus myosuroides), and Galium (catchweed bedstraw, Galium aparine) were planted in pots containing the same blend of loam soil and sand and treated with postemergence applications of test chemicals formulated in the same manner. Plants ranged in height from 2 to 10 cm and were in the one- to two-leaf stage for the postemergence treatment. Treated plants and untreated controls were maintained in a greenhouse for approximately 10 d, after which time all treated plants were compared to untreated controls and visually evaluated for injury. Plant response ratings, summarized in Table A, are based on a 0 to 100 scale where 0 is no effect and 100 is complete control. A dash (-) response means no test result.

[2] = tested on: pigweed (Amaranthus retroflexus); experiment: Test A postemergence
Text: as §1, §2

Kochia (Kochia scoparia) [3] = experiment: Test A postemergence
Text: as §1, §2

[4] = tested on: wheat (Triticum aestivum); experiment: Test A postemergence
Text: as §1, §2

[5] = tested on: blackgrass (Alopecurus myosuroides); experiment: Test A postemergence
Text: as §1, §2

corn (Zea mays) = experiment: Test A postemergence
Text: as §1, §2

[6] = tested on: giant foxtail (Setaria faberii); experiment: Test A postemergence
Text: as §1, §2

[7] = tested on: barnyardgrass (Echinochloa crus-galli); experiment: Test A postemergence
Text: as §1, §2

[8] = tested on: ragweed (common ragweed, Ambrosia elatior); experiment: Test A postemergence
Text: as §1, §2

[9] = tested on: ryegrass, Italian (Italian ryegrass, Lolium multiflorum); experiment: Test A postemergence
Text: as §1, §2

[10] = tested on: pigweed (Amaranthus retroflexus); experiment: Test A preemergence; settings: for Plant response rating, Pigweed: 125 g ai/ha, preemergence, 0 to 100 scale (0 no effect, 100 complete control); for Pigweed plant response rating (0 to 100 scale): Preemergence, 500 g ai/ha, 0 is no effect, 100 is complete control
Text: as §1, §2

Kochia (Kochia scoparia) [11] = experiment: Test A preemergence; settings: for Plant response rating, Kochia: 125 g ai/ha, preemergence, 0 to 100 scale (0 no effect, 100 complete control); for Kochia plant response rating (0 to 100 scale): Preemergence, 500 g ai/ha, 0 is no effect, 100 is complete control
Text: as §1, §2

[12] = tested on: giant foxtail (Setaria faberii); experiment: Test A preemergence; settings: for Plant response rating, Foxtail, Giant: 125 g ai/ha, preemergence, 0 to 100 scale (0 no effect, 100 complete control); for Foxtail, Giant plant response rating (0 to 100 scale): Preemergence, 500 g ai/ha, 0 is no effect, 100 is complete control
Text: as §1, §2

[13] = tested on: barnyardgrass (Echinochloa crus-galli); experiment: Test A preemergence; settings: for Plant response rating, Barnyardgrass: 125 g ai/ha, preemergence, 0 to 100 scale (0 no effect, 100 complete control); for Barnyardgrass plant response rating (0 to 100 scale): Preemergence, 500 g ai/ha, 0 is no effect, 100 is complete control
Text: as §1, §2

[14] = tested on: ragweed (common ragweed, Ambrosia elatior); experiment: Test A preemergence; settings: for Plant response rating, Ragweed: 125 g ai/ha, preemergence, 0 to 100 scale (0 no effect, 100 complete control); for Ragweed plant response rating (0 to 100 scale): Preemergence, 500 g ai/ha, 0 is no effect, 100 is complete control
Text: as §1, §2

[15] = tested on: ryegrass, Italian (Italian ryegrass, Lolium multiflorum); experiment: Test A preemergence; settings: for Plant response rating, Ryegrass, Italian: 125 g ai/ha, preemergence, 0 to 100 scale (0 no effect, 100 complete control); for Ryegrass, Italian plant response rating (0 to 100 scale): Preemergence, 500 g ai/ha, 0 is no effect, 100 is complete control
Text: as §1, §2

[16] = tested on: ducksalad (Heteranthera limosa); experiment: Test B flooded paddy test; settings: Flood, 250 g ai/ha; 0 to 100 scale where 0 is no effect and 100 is complete control; 13 to 15 d
Procedure: (§3) Plant species in the flooded paddy test selected from rice (Oryra sativa), sedge, umbrella (small-flower umbrella sedge, Cyperus difformis), ducksalad (Heteranthera limosa), and barnyardgrass (Echinochloa crus-galli) were grown to the 2-leaf stage for testing. At time of treatment, test pots were flooded to 3 cm above the soil surface, treated by application of test compounds directly to the paddy water, and then maintained at that water depth for the duration of the test. Treated plants and controls were maintained in a greenhouse for 13 to 15 d, after which time all species were compared to controls and visually evaluated. Plant response ratings, summarized in Table B, are based on a scale of 0 to 100 where 0 is no effect and 100 is complete control. A dash (-) response means no test result.

[17] = tested on: sedge, umbrella (small-flower umbrella sedge, Cyperus difformis); experiment: Test B flooded paddy test; settings: Flood, 250 g ai/ha; 0 to 100 scale where 0 is no effect and 100 is complete control; 13 to 15 d
Procedure: as §3

[18] = tested on: barnyardgrass (Echinochloa crus-galli); experiment: Test B flooded paddy test; settings: Flood, 250 g ai/ha; 0 to 100 scale where 0 is no effect and 100 is complete control; 13 to 15 d
Procedure: as §3

rice (Oryra sativa) = experiment: Test B flooded paddy test; settings: Flood, 250 g ai/ha; 0 to 100 scale where 0 is no effect and 100 is complete control; 13 to 15 d
Procedure: as §3

[19] = 500 g ai/ha, postemergence, 0 to 100 scale, 0 no effect, 100 complete control
[20] = Postemergence, 125 g ai/ha, visual injury, 0 to 100 scale (0 no effect, 100 complete control), approx. 10 d

Row | Compound | Plant response rating, Galium [1, 19] | Plant response rating, Galium [1, 20] | Plant response rating, Pigweed [2, 19] | Plant response rating, Pigweed [2, 20] | Plant response rating, Kochia (Kochia (Kochia scoparia) [3]; [19]) | Plant response rating, Kochia (Kochia (Kochia scoparia) [3]; [20]) | Plant response rating, Wheat [4, 19] | Plant response rating, Wheat [4, 20] | Plant response rating, Blackgrass [5, 19] | Plant response rating, Blackgrass [5, 20] | Plant response rating, Corn (corn (Zea mays); [19]) | Plant response rating, Corn (corn (Zea mays); [20]) | Plant response rating, Foxtail, Giant [6, 19] | Plant response rating, Foxtail, Giant [6, 20] | Plant response rating, Barnyardgrass [7, 19] | Plant response rating, Barnyardgrass [7, 20] | Plant response rating, Ragweed [8, 19] | Plant response rating, Ragweed [8, 20] | Plant response rating, Ryegrass, Italian [9, 19] | Plant response rating, Ryegrass, Italian [9, 20] | also measured
1 | Cc1ccc(C2CNC(=O)C2C(=O)Nc2ccc(F)cc2F)cc1F (racemic) [Compound 370] | 60 | 20 | 0 | 0 | 0 | 0 | 20 | 0 | 40 | 0 | 20 | 0 | 70 | 40 | 90 | 80 | 50 | 0 | 20 | 0 | Plant response rating, Pigweed [10]: 0; Pigweed plant response rating (0 to 100 scale) [10]: 0; Plant response rating, Kochia (Kochia (Kochia scoparia) [11]): 0; Kochia plant response rating (0 to 100 scale) (Kochia (Kochia scoparia) [11]): 30; Plant response rating, Foxtail, Giant [12]: 90; Foxtail, Giant plant response rating (0 to 100 scale) [12]: 90; Plant response rating, Barnyardgrass [13]: 90; Barnyardgrass plant response rating (0 to 100 scale) [13]: 90; Plant response rating, Ragweed [14]: 0; Ragweed plant response rating (0 to 100 scale) [14]: 20; Plant response rating, Ryegrass, Italian [15]: 0; Ryegrass, Italian plant response rating (0 to 100 scale) [15]: 0; Plant response rating, Ducksalad [16]: 100; Plant response rating, Sedge, Umbrella [17]: 30; Plant response rating, Barnyardgrass [18]: 60; Plant response rating, Rice (rice (Oryra sativa)): 0
2 | Cc1cccc(C2CNC(=O)C2C(=O)Nc2ccccc2F)c1 (racemic) [Compound 372] | 20 | 0 | 30 | 20 | 40 | 0 | 20 | 0 | 30 | 20 | 20 | 0 | 70 | 50 | 80 | 80 | 0 | 0 | 40 | 20 | Plant response rating, Pigweed [10]: 0; Pigweed plant response rating (0 to 100 scale) [10]: 50; Plant response rating, Kochia (Kochia (Kochia scoparia) [11]): 0; Kochia plant response rating (0 to 100 scale) (Kochia (Kochia scoparia) [11]): 0; Plant response rating, Foxtail, Giant [12]: 80; Foxtail, Giant plant response rating (0 to 100 scale) [12]: 90; Plant response rating, Barnyardgrass [13]: 90; Barnyardgrass plant response rating (0 to 100 scale) [13]: 90; Plant response rating, Ragweed [14]: 0; Ragweed plant response rating (0 to 100 scale) [14]: 30; Plant response rating, Ryegrass, Italian [15]: 0; Ryegrass, Italian plant response rating (0 to 100 scale) [15]: 30; Plant response rating, Ducksalad [16]: 100; Plant response rating, Sedge, Umbrella [17]: 0; Plant response rating, Barnyardgrass [18]: 60; Plant response rating, Rice (rice (Oryra sativa)): 35
